Measurements published in paper PMC6131563, “Talaropeptides A-D: Structure and Biosynthesis of Extensively N-methylated Linear Peptides From an Australian Marine Tunicate-Derived Talaromyces sp” (Frontiers in Chemistry, 2018).
Read-outs that look alike come from different tables or passages of the source. Each block holds one molecule with its values, some of them ahead of it. Where a SMILES comes first, the peptide text is derived from it. [ ]: non-standard residue; d: D form. NMeF = CN[C@@H](Cc1ccccc1)C(=O)O; NMeI = CC[C@H](C)[C@H](NC)C(=O)O; NMeV = CN[C@H](C(=O)O)C(C)C; NMeA = CN[C@@H](C)C(=O)O

Legend:
[1] = test system: SW620; assay: cells; set-up: MTT assay of cancer cell growth inhibition, absorbance at 580 nm; conditions: Homo sapiens, SW-620, 48 h
Procedure: (§1) Adherent cell SW620 (human colorectal carcinoma) and NCI-H460 (human lung carcinoma) cells were cultured in Roswell Park Memorial Institute (RPMI) 1640 medium. All cells were cultured as adherent mono-layers in flasks supplemented with 10% fetal bovine serum, L–glutamine (2 mM), penicillin (100 unit/mL), and streptomycin (100 μg/mL), in a humidified 37°C incubator supplied with 5% CO2. Briefly, cells were harvested with trypsin and dispensed into 96-well microtiter assay plates at 3,000 cells/well, after which they were incubated for 18 h at 37°C with 5% CO2 (to allow cells to attach as adherent mono-layers). Test compounds were dissolved in 20% DMSO in PBS (v/v) and aliquots (10 μL) applied to cells over a series of final concentrations ranging from 10 nM to 30 μM. After 48 h incubation at 37°C with 5% CO2 an aliquot (20 μL) of 3-(4,5-dimethylthiazol-2-yl)-2,5-diphenyltetrazolium bromide (MTT) in phosphate buffered saline (PBS, 5 mg/mL) was added to each well (final concentration 0.5 mg/mL), and microtiter plates were incubated for a further 4 h at 37°C with 5% CO2. After final incubation, the medium was aspirated and precipitated formazan crystals dissolved in DMSO (100 μL/well). The absorbance of each well was measured at 580 nm with a PowerWave XS Microplate Reader from Bio-Tek Instruments Inc. Where relevant, IC50 values were calculated using Prism 7.0, as the concentration of analyte required for 50% inhibition of cancer cell growth (compared to negative controls). Negative control was 1% aqueous DMSO, while positive control was doxorubicin (30 μM). All experiments were performed in duplicate.

[2] = test system: NCI-H460; assay: cells; set-up: MTT assay of cancer cell growth inhibition, absorbance at 580 nm; conditions: Homo sapiens, NCI-H460, 48 h
Procedure: as §1

[3] = test system: Bacillus subtilis ATCC 6633; format: cell-based; conditions: ATCC 6633, 24 h

SMILES: CC[C@H](C)[C@@H](C(=O)N[C@@H](CC(C)C)C(=O)O)N(C)C(=O)[C@H](Cc1ccccc1)N(C)C(=O)[C@H](C(C)C)N(C)C(=O)[C@H](C(C)C)N(C)C(=O)[C@@H]1CCCN1C(=O)[C@H](C(C)C)N(C)C(=O)[C@@H](NC(=O)[C@@H](NC(=O)[C@H](C(C)C)N(C)C(=O)[C@H](C)NC)C(C)C)[C@@H](C)O [compound 2, talaropeptide A] (H-[NMeA][NMeV]VT[NMeV]P[NMeV][NMeV][NMeF][NMeI]L-OH)
IC50 ([1]; read-out: 2): > 30 µM
IC50 ([2]; read-out: 2): > 30 µM
IC50 [3]: 1.5 µM

IC50 ([1]; read-out: 3): > 30 µM
IC50 ([2]; read-out: 3): > 30 µM
IC50 [3]: 3.7 µM
SMILES: CC[C@H](C)[C@@H](C(=O)N[C@@H](CC(C)C)C(=O)O)N(C)C(=O)[C@H](Cc1ccccc1)N(C)C(=O)[C@H](C(C)C)N(C)C(=O)[C@H](C(C)C)N(C)C(=O)[C@@H]1CCCN1C(=O)[C@H](C(C)C)N(C)C(=O)[C@@H](NC(=O)[C@@H](NC(=O)[C@@H](NC(=O)[C@H](C(C)C)N(C)C(=O)[C@H](C)NC)C(C)C)[C@@H](C)O)C(C)C [compound 3, talaropeptide B] (H-[NMeA][NMeV]VTV[NMeV]P[NMeV][NMeV][NMeF][NMeI]L-OH)

SMILES: CC[C@H](C)[C@@H](C(=O)N[C@@H](CC(C)C)C(=O)O)N(C)C(=O)[C@H](Cc1ccccc1)N(C)C(=O)[C@H](C(C)C)N(C)C(=O)[C@H](C(C)C)N(C)C(=O)[C@@H]1CCCN1C(=O)[C@H](C(C)C)N(C)C(=O)[C@@H](NC(=O)[C@@H](NC(=O)[C@H](C(C)C)N(C)C(=O)[C@H](C)N(C)C(C)=O)C(C)C)[C@@H](C)O [compound 4, talaropeptide C] (Ac-[NMeA][NMeV]VT[NMeV]P[NMeV][NMeV][NMeF][NMeI]L-OH)
IC50 ([1]; read-out: 4): > 30 µM
IC50 ([2]; read-out: 4): > 30 µM

IC50 ([1]; read-out: 5): > 30 µM
IC50 ([2]; read-out: 5): > 30 µM
SMILES: CC[C@H](C)[C@@H](C(=O)N[C@@H](CC(C)C)C(=O)O)N(C)C(=O)[C@H](Cc1ccccc1)N(C)C(=O)[C@H](C(C)C)N(C)C(=O)[C@H](C(C)C)N(C)C(=O)[C@@H]1CCCN1C(=O)[C@H](C(C)C)N(C)C(=O)[C@@H](NC(=O)[C@@H](NC(=O)[C@@H](NC(=O)[C@H](C(C)C)N(C)C(=O)[C@H](C)N(C)C(C)=O)C(C)C)[C@@H](C)O)C(C)C [compound 5, talaropeptide D] (Ac-[NMeA][NMeV]VTV[NMeV]P[NMeV][NMeV][NMeF][NMeI]L-OH)
